# Test results taken from ChEMBL document CHEMBL1914359, “Bendigoles D-F, bioactive sterols from the marine sponge-derived Actinomadura sp. SBMs009” (Bioorg Med Chem, 2011).
# Calls of active or inactive are those of the source. No cut-off for these calls is given here.
# Columns and labels:
# Assay type in all cases: cell-based
# [1] = Inhibition of IL1-beta-induced GFP-tagged NFkappaB nuclear translocation in CHO cells pretreated for 4 hrs before IL1-beta challenge using Hoechst staining by fluorescence microscopy relative to control; details: Cricetulus griseus
# [2] = target: T1, Glucocorticoid receptor (Homo sapiens) (UniProt P04150); assay: Inhibition of EGFP-tagged GR nuclear translocation in human U2OS cells at 2.5 uM after 1 hr using Hoechst staining by fluorescence microscopy relative to control
# T1 sequence (whole entry): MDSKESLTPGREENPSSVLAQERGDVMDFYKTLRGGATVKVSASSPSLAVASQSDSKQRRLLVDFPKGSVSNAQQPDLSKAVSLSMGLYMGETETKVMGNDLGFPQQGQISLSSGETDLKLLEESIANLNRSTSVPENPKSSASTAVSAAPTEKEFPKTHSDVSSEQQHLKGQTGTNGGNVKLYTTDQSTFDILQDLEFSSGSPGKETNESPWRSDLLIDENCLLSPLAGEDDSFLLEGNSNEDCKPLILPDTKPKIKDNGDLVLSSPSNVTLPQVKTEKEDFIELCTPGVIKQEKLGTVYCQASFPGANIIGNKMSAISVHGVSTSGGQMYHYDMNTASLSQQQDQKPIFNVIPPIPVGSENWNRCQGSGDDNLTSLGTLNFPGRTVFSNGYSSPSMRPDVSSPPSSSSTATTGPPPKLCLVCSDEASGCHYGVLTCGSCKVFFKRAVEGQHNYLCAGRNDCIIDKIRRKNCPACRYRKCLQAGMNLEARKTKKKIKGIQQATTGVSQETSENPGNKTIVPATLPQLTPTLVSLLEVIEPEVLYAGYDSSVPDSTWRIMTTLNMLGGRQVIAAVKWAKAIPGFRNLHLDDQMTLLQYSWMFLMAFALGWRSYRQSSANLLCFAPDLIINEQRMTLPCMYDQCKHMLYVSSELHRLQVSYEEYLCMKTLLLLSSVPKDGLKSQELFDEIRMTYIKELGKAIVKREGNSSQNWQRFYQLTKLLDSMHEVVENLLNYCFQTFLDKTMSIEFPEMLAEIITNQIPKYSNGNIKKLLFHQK
# [3] = target: T1, Glucocorticoid receptor (Homo sapiens); assay: Inhibition of EGFP-tagged GR nuclear translocation in human U2OS cells at 250 uM after 1 hr using Hoechst staining by fluorescence microscopy relative to control
# [4] = target: T1, Glucocorticoid receptor (Homo sapiens); assay: Inhibition of EGFP-tagged GR nuclear translocation in human SH-SY5Y cells at 2.5 uM after 1 hr using Hoechst staining by fluorescence microscopy relative to control
# [5] = target: T1, Glucocorticoid receptor (Homo sapiens); assay: Inhibition of EGFP-tagged GR nuclear translocation in human SH-SY5Y cells at 250 uM after 1 hr using Hoechst staining by fluorescence microscopy relative to control
# [6] = target: T1, Glucocorticoid receptor (Homo sapiens); assay: Inhibition of EGFP-tagged GR nuclear translocation in human HaCaT cells at 2.5 uM after 1 hr using Hoechst staining by fluorescence microscopy relative to control
# [7] = target: T1, Glucocorticoid receptor (Homo sapiens); assay: Inhibition of EGFP-tagged GR nuclear translocation in human HaCaT cells at 250 uM after 1 hr using Hoechst staining by fluorescence microscopy relative to control
# L929 = assay: Cytotoxicity against mouse L929 cells after 5 days by MTT assay; details: for Activity: mouse, l929, 120 h
IC50 [1] [µM],inhibition [2],inhibition [3],inhibition [4],inhibition [5],inhibition [6],inhibition [7],SMILES,Activity (L929),"IC50 (L929; Mus musculus, L929, 120 h) [µM]"
71,Active,Active,Active,Active,Active,Active,C[C@H](CCC(=O)O)[C@H]1CC[C@H]2[C@@H]3[C@H](O)CC4=CC(=O)C=C[C@]4(C)[C@H]3C[C@H](O)[C@]12C (relative stereo),Non-toxic,–
–,Active,Active,Active,Active,Active,Active,CC(=O)[C@@H](C)[C@H]1CC[C@H]2[C@@H]3[C@H](O)CC4=CC(=O)C=C[C@]4(C)[C@H]3C[C@H](O)[C@]12C (relative stereo),Non-toxic,–
–,Active,Active,Active,Active,Active,Active,C[C@H](C(=O)O)[C@H]1CC[C@H]2[C@@H]3[C@H](O)CC4=CC(=O)C=C[C@]4(C)[C@H]3C[C@H](O)[C@]12C (relative stereo),–,30
